From patent US20220409608A1, “DIMERIC NAPHTHALIMIDE FORMULATIONS” (ALUCENT BIOMEDICAL, INC., priority 2019, published 2022)

Experiments:
Assay type in all cases: physicochemical
[1] = Combination of exemplary composition and paclitaxel injection solution, UPLC; conditions: for Compound of Formula (I) (HPLC area-%) / Total impurities (HPLC area-%): equal volumes of formulation and paclitaxel injection solution (6 mg/mL); for Compound of Formula (I) (HPLC area-%) / Total impurities (HPLC area-%) / Stability after being combined in the same composition: room temperature; for Stability after being combined in the same composition: seven hours after combining Compound of Formula (I) formulation and paclitaxel
Experimental: (§1) The purity of a composition was analyzed by UPLC on a 2.1×100 mm C18 column with 1.7 μm packing. The analytical method was a 7 minute gradient at 30° C. and a flowrate of 0.61 mL/min consisting of acetonitrile, water, and trifluoracetic acid. Absorption was measured at 210 nm and 440 nm.
Equal volumes of a formulation from Example 1 and paclitaxel injection solution (6 mg/mL; used as received from manufacturer) were combined in an amber scintillation vial and stored at room temperature. The resulting mixture was a clear yellow solution. An aliquot was obtained, diluted 1:10 with 0.1% aqueous TFA and analyzed by UPLC as described herein. Another aliquot was obtained, 7 hours after preparation of the mixture, and similarly diluted and analyzed.

[2] = Stability of formulations at 40° C. at various pH values (impurities by UPLC)
Experimental: as §1
To determine the stability of the formulations described herein, the amount of impurities was measured. A formulation was added to a 10 mL amber vial and stored at 40° C. in a constant temperature chamber. At the desired time point(s), the formulation was analyzed by UPLC and the pH was measured. No change in physical appearance was observed.

[3] = Combination of exemplary composition and radiographic contrast agent, UPLC; conditions: for Increase in the amount of impurities of Compound of Formula (I), HPLC chromatograms: initial and 24-hour timepoints
Experimental: as §1
Equal volumes of a formulation from Example 1 and radiographic contrast agent (Omnipaque or Isovue), as received from the manufacturer, were drawn into separate syringes. The two syringes were connected to an indeflator by a three-way joint/stopcock. The indeflator was evacuated and the mixtures from both syringes were transferred into the indeflator. The indeflator was then inverted six times to ensure complete mixing of the mixtures. The resulting mixture was a yellow/orange translucent mixture, stored in an amber scintillation vial at room temperature, and analyzed by UPLC upon storage and after 24 hours.

[4] = equal volumes of formulation and Isovue, room temperature, t = 0 hours
[5] = equal volumes of formulation and Isovue, room temperature, t = 24 hours
[6] = equal volumes of formulation and Omnipaque, room temperature, t = 0 hours
[7] = equal volumes of formulation and Omnipaque, room temperature, t = 24 hours

NCCOCCOCCNc1ccc2c3c(cccc13)C(=O)N(CCOCCOCCN1C(=O)c3cccc4c(NCCOCCOCCN)ccc(c34)C1=O)C2=O [Compound of Formula (I), 2,2′-((ethane-1,2-diylbis(oxy))bis(ethane-2,1-diyl))bis(6-((2-(2-(2-aminoethoxy)ethoxy)ethyl)amino)-1H-benzo[de]isoquinoline-1,3(2H)-dione)]
Compound of Formula (I) (HPLC area-%) ([1]; 0 hours): 98.9 HPLC area-% | Total impurities (HPLC area-%) ([1]; 0 hours): 1.1 HPLC area-% | Compound of Formula (I) (HPLC area-%) ([1]; 1 hour): 98.9 HPLC area-% | Total impurities (HPLC area-%) ([1]; 1 hour): 1.1 HPLC area-% | Compound of Formula (I) (HPLC area-%) ([1]; 4 hours): 98.9 HPLC area-% | Total impurities (HPLC area-%) ([1]; 4 hours): 1.1 HPLC area-% | Compound of Formula (I) (HPLC area-%) ([1]; 7 hours): 98.9 HPLC area-% | Total impurities (HPLC area-%) ([1]; 7 hours): 1.1 HPLC area-% | Increase in the amount of impurities of Compound of Formula (I), HPLC chromatograms ([1]; mixture with paclitaxel, 1- and 7-hour time points, FIG. 7): no increase | Stability after being combined in the same composition [1]: stable | Increase in impurity concentration ([2]; composition at a pH ranging from 5 to 7): minimal | Degradation in compositions ([2]; compositions having a pH of less than 5 or greater than 7): degrade appreciably | Stability when combined with a radiographic contrast agent ([3]; after 24 hours, room temperature): stable | Compound of Formula (I) (HPLC area-%) [3, 4]: 98.98 HPLC area-% | Total impurities (HPLC area-%) [3, 4]: 1.02 HPLC area-% | Compound of Formula (I) (HPLC area-%) [3, 5]: 98.97 HPLC area-% | Total impurities (HPLC area-%) [3, 5]: 1.03 HPLC area-% | Compound of Formula (I) (HPLC area-%) [3, 6]: 98.98 HPLC area-% | Total impurities (HPLC area-%) [3, 6]: 1.02 HPLC area-% | Compound of Formula (I) (HPLC area-%) [3, 7]: 98.95 HPLC area-% | Total impurities (HPLC area-%) [3, 7]: 1.05 HPLC area-% | Increase in the amount of impurities of Compound of Formula (I), HPLC chromatograms ([3]; mixture with Isovue, FIG. 5): no increase | Increase in the amount of impurities of Compound of Formula (I), HPLC chromatograms ([3]; mixture with Omnipaque, FIG. 6): no increase

CC(=O)O[C@H]1C(=O)[C@@]2(C)[C@H]([C@H](OC(=O)c3ccccc3)[C@]3(O)C[C@H](OC(=O)[C@H](O)[C@@H](NC(=O)c4ccccc4)c4ccccc4)C(C)=C1C3(C)C)[C@]1(OC(C)=O)CO[C@@H]1C[C@@H]2O [paclitaxel, reference compound]
Increase in the amount of impurities of paclitaxel, HPLC chromatograms ([1]; mixture of Compound of Formula (I) and paclitaxel, 1- and 7-hour time points, FIG. 8): no increase | Stability after being combined in the same composition [1]: stable
